Measurements published in US9636311B2, “N,N′-di-1 naphthylguanidine HCl (NAGH) and N,N′-di-p-nitrophenylguanidine HCl (NAD) treatment for stroke at delayed timepoints” (University of South Florida, priority 2012, dated 2017).

Assays:
Format in all cases: in vivo, rat
[1] = tested on: rats following MCAO; test: White matter injury, Luxol Fast Blue staining after MCAO; details: 30 days post-stroke
Method: (§1) MCAO surgeries were performed as described elsewhere (Vendrame M, Cassady C J, Newcomb J, Butler T, Pennypacker K R, Zigova T, et al. Stroke. 2004; 35:2390-2395). Briefly, rats were anesthetized with isoflurane, and the right common carotid and external carotid arteries were exposed using blunt dissection techniques. The vagus nerve was separated from common carotid artery and the external carotid artery was ligated proximally, and transected near the bifurcation. An embolus 40 mm in length (4.0 siliconized monofilament) was inserted into the external carotid artery and fed distally into the origin of the middle cerebral artery (˜25 mm from insertion) through the internal carotid artery. Blood samples were taken and analyzed using an i-STAT handheld analyzer for hemoglobin, hematocrit, ionized calcium, glucose, sodium, potassium, pH, pCO2, HCO3, TCO2, base excess, pO2, and O2. Cerebral blood flow was recorded using a Laser Doppler Monitor (Moor Instruments) to verify occlusion. Afterwards, the embolus was ligated permanently into the vessel and the neck incision was closed. Animals were treated with Ketoprofen IM (10 mg/kg) for three days post-surgery.
(§2) For the NAGH studies, vehicle or NAGH were prepared fresh each day. Daily subcutaneous injections (s.c) were administered beginning about 24 hours after MCAO and continued daily to about 72 hours post-surgery (FIG. 1). Animals received a total of 3 injections. A total of 84 animals were randomly assigned into 2 groups: Rats treated with vehicle (40% DMSO in sterile saline, n=42), or rats treated with 0.86 mg/kg NAGH (n=42).
To evaluate white matter injury, coronal brain sections from each the animals were stained with Luxol Fast Blue (LFB; Sigma-Aldrich). For Luxol Fast Blue (LFB) staining, slides were dehydrated in 95% ethanol and incubated in LFB solution at 56° C. overnight. The following day slides were rinsed in 95% ethanol and distilled water and differentiated in 0.1% lithium carbonate solution for 20 s followed by 70% ethyl alcohol for 30 s, and finally rinsed in distilled water. After complete gray and white matter differentiation, slides were dehydrated and placed under coverslips with DPX. The quantitative analysis for demyelination in LFB staining section was performed as described previously with some modification (Virgili, Espinosa-Parrilla et al. 2011; Yu, Gong et al. 2012). LFB stained area was measured on the randomly selected sections (n=21-23 animals/group) to assess demyelination. The extent of the LFB positive area was quantified using a pixel grayscale approach in ImageJ software (National Institute of Health, USA). […] Once calibrated, the amount of LFB staining was measured as the percentage of hemispheric area using ImageJ software.

[2] = tested on: rats following MCAO; test: Elevated body swing test after MCAO; details: 30 days after MCAO; p=0.009
Method: as §1, with “Afterwards, the embolus was ligated permanently into the vessel and the neck incision was closed. Animals were treated with Ketoprofen IM (10 mg/kg) for three days post-surgery.” left out
The animal was placed in a Plexiglas box (40×40×35.5 cm), allowed to habituate for 2 minutes and attain a neutral position, defined as having all four paws on the ground. […] A swing was recorded whenever the animal moved its head out of the vertical axis to the right or left over […]. Swings were recorded using a hand counter. […]

[3] = tested on: rats following MCAO; test: Brain infarction quantification (Nissl thionin) after MCAO; details: s.c. daily for 3 days from 24 h post-MCAO (NAGH 0.86 mg/kg, NAD 2.8 mg/kg); 30 days post MCAO; mean±SEM
Method: All animal procedures were performed according to the University of South Florida guidelines for the care and use of animals and protocols were reviewed and approved by the Institutional Animal Care and Use Committee and adhered to the NIH guidelines for the care and use of animals. Adult male Sprague Dawley rats (Harlan) weighing about 250-300 g at the time of surgery were used for the study. All animals were housed two per cage in a temperature controlled room, under a 12 hour light-dark cycle, and given access to water and food ad libitum. Animals were monitored daily for wellness and biweekly for weight loss. For the NAGH studies, a total of 84 animals were randomly assigned to 2 groups: MCAO only (n=42) and rat treated with NAGH (n=42) beginning 24 hour after MCAO.
as §1, §2
For the studies with other compounds based on the structure of DTG, twenty-four hours after MCAO, the rats began a sigma agonist treatment regimen. Vehicle or drug was prepared fresh each day. […]
Infarct size was determined by Nissl thionin staining. […]

[4] = tested on: rats following MCAO; test: Iba1 immunostaining of microglia after MCAO; details: 30 days after stroke; p>0.05
Method: as §1, with “Afterwards, the embolus was ligated permanently into the vessel and the neck incision was closed. Animals were treated with Ketoprofen IM (10 mg/kg) for three days post-surgery.” left out
Anti-Iba1 (1:500; Wako 019-19741) immunocytochemistry was used for the specific identification of microglia. […] Iba-1 positive cells were quantified (n=12) as previously detailed by Smirkin et al. (Smirkin, Matsumoto et al. 2010) with little modification. […] Total number of Iba-1 positive cells were counted manually by two observer using ImagePro plus software.

## Cl.N=C(Nc1cccc2ccccc12)Nc1cccc2ccccc12 [NAGH, N,N′-di-1-Naphthylguanidine hydrochloride]
[1]
  White matter tracts (LFB) vs DMSO: white matter tracts were more intact
[1]; p<0.05 vs DMSO
  Percent change in LFB staining from contralateral to ipsilateral hemisphere: −0.73+7.7%
[1]; NAGH 0.86 mg/kg s.c. x3, n=22
  LFB staining, ischemic hemisphere (percentage of hemispheric area): 10.32±0.48%
  LFB staining, non-ischemic hemisphere (percentage of hemispheric area): 9.81±0.38%
[2]
  EBST bias vs DMSO: significantly less bias
[3]
  Infarct volume (percent of hemisphere): 13.58±2.3%
[4]
  Activated microglia (Iba1 positive cells) in peri-infarct and ischemic core vs DMSO: not statistically significant
